Experimental data taken from patent publication US12622975B2, “Peptide-conjugated prodrugs” (priority 2019, dated 2026).
Converted amounts (≈) assume the structure as drawn. “Also recorded” adds a separate entry of the source. Read-outs that look alike come from different tables or passages of the source.

How the values were obtained:
E. coli (K-12) lysate = assay: Hydrolysis assay with E. coli lysate; type: in vitro ADME; conditions: for apparent first-order rate constant of hydrolysis: compound 200 μM, E. coli lysate 0.1 U/mL, pH 7.4 PBS, 37° C.
Procedure: (§1) Hydrolysis assay: Wild-type E. coli strains (K12) were harvested by centrifugation and the cell pellets were lysed using a sonic device. After centrifugation, the supernatant was collected and the proteinase inhibitor was added in the E. coli lysate. The concentration of E. coli lysate was normalized by the fluorescence intensity of 5-carboxyfluorescein diacetate (CFDA). Briefly, different concentrations of CES (4 U/mL, 2 U/mL, 1 U/mL, 0.5 U/mL, 0.25 U/mL, 0.125 U/mL, 0.0625 U/mL, 0.03125 U/mL, 0.015625 U/mL and 0 U/mL) and different amount of E. coli lysates were prepared in PBS buffer. Followed by, 25 μM of CFDA was added in and incubated at room temperature for 1 hour. Then the fluorescence was tested to draw a fluorescence-concentration dependent curve for figuring out the concentration of E. coli lysates. Solutions of CLsuGG (200 μM) were prepared in pH 7.4 PBS buffer. CES and E. coli lysate (0.1 U/mL) were added and incubated with above solutions at 37° C. for 24 hours. At different time points, the solution was taken out, extracted with an equal volume of butanol, concentrated to dryness, and resuspended with butanol for HPLC analysis. HPLC was performed with Agilent 1100 Series Liquid Chromatograph equipped with an XTerra C18 reverse phase column and Variable Wavelength Detector. The hydrolyzed mixture resuspended in 1 mL of butanol was injected to HPLC mobile phase (0.1% trifluoroacetic acid, the starting ratio: 10% acetonitrile and 90% water). The system was run at a flow rate of 10 mL/min.
as §1, with “analysis.” for “analysis. HPLC was performed with Agilent 1100 Series Liquid Chromatograph equipped with an XTerra C18 reverse phase column and Variable Wavelength Detector. The hydrolyzed mixture resuspended in 1 mL of butanol was injected to HPLC mobile phase (0.1% trifluoroacetic acid, the starting ratio: 10% acetonitrile and 90% water). The system was run at a flow rate of 10 mL/min.”

[1] = test system: esterase (bioH, yjfP, frsA, ybfF, yfbB, ypfH, yeiG, or yqiA) deletion mutants of E. coli; type: cell-based; conditions: single esterase gene deletion
Procedure: Bacteria culture and inhibitory activity assay: Single esterase (BioH, YjfP, FrsA, YbfF, YfbB, YqiA, YeiG, or and YpfH) deletion mutants were purchased from Dharmacon Horizon Discovery (Cambridge, United Kingdom). The K12 wild-type E. coli strain (MG1655) was cultured in autoclaved LB medium (25 g/L LB broth/water) in a shaker-incubator overnight to stationary growth phase, and then sub-cultured in the same medium after dilution to OD600 of 0.05. Compounds were added at different concentrations. The mixture of bacteria and compounds were placed (200 μL/well) into 96-well clear flat bottom plates. In all plates, the OD600 was measured before and after 16 hour incubation at 37° C.
(§2) Bacteria culture and inhibitory activity assay: Single esterase (bioH, frsA, ybfF, yfbB, yqiA, yeiG, or ypfH) deletion mutants, bacterial transporter (ydgR, fepA and ompF) deletion mutants and the efflux pump (acrA) deletion mutant were all purchased from Dharmacon Horizon Discovery (Cambridge, United Kingdom). The K12 wild-type E. coli strain (MG1655) was cultured in autoclaved LB medium (25 g/L LB broth/water) in a shaker-incubator overnight to stationary growth phase, and then sub-cultured in the same medium after dilution to OD600 of 0.05. Compounds were added at different concentrations. The mixture of bacteria and compounds were placed (200 μL/well) into 96-well clear flat bottom plates. In all plates, the OD600 was measured before and after a 16 hour incubation at 37° C.

[2] = Stability in human serum (LC-MS); type: in vitro ADME; conditions: 200 μM, 37° C.; for Compounds remaining (%) 0 h / Compounds remaining (%) 2 h / Compounds remaining (%) 24 h: human serum
[3] = test system: wild type E. coli strain (K-12); assay: Bacteria culture and inhibitory activity assay (MIC); type: cell-based; conditions: for Effect of addition of exogenous PLE on inhibitory efficacy: porcine liver esterase 1 U/mL; for MIC: Escherichia coli
Procedure: Bacteria culture and inhibitory activity assay: Single esterase (BioH, YjfP, FrsA, YbfF, YfbB, YqiA, YeiG, or and YpfH) deletion mutants were purchased from Dharmacon Horizon Discovery (Cambridge, United Kingdom). […] Compounds were added at different concentrations.
Compounds were added at different concentrations.

[4] = test system: ydgR, fepA, ompF transporter deletion mutants of E. coli; conditions: mutants versus wild-type E. coli
Procedure: as §2
(§3) Several representative peptides conjugating CLsu (e.g., 1c, 1d, 2b and 2c) were chosen to study the effects of conjugated peptides on the uptake of the prodrugs.

[5] = test system: acrA efflux pump deletion mutant of E. coli; conditions: acrA mutant versus wild-type E. coli
Procedure: as §2, §3

HS-5 cells = assay: Cell viability assay (MTT), HS-5; type: cell-based, human; conditions: 20 μM, 24 hours
carboxylesterase (CES) = assay: Hydrolysis assay with exogenous carboxylesterase; type: in vitro ADME, porcine; conditions: CES 0.1 U/mL
Source text: Experimental materials and instruments. All the solvents and chemical reagents were used directly as received from the commercial sources without further purification unless otherwise stated. Carboxylesterase (CES) from porcine liver was purchased from Sigma-Aldrich (lyophilized powder, >15 units/mg solid; Unit definition: One unit will hydrolyze 1.0 μmole of ethyl butyrate to butyric acid and ethanol per min at pH 8.0 at 25). CLsuGG, CLsuG, CLsuGGG were purified with Agilent 1100 Series Liquid Chromatography system, equipped with an XTerra C18 RP column and Variable Wavelength detector.
as §1, with “Briefly, different concentrations of CES (4 U/mL, 2 U/mL, 1 U/mL, 0.5 U/mL, 0.25 U/mL, 0.125 U/mL, 0.0625 U/mL, 0.03125 U/mL, 0.015625 U/mL and 0 U/mL) and different amount of E. coli lysates were prepared in PBS buffer. Followed by, 25 μM of CFDA was added in and incubated at room temperature for 1 hour.” left out, “CES and E. coli lysate (0.1 U/mL) were added and incubated with above solutions at 37° C. for 24 hours.” left out

Row | Compound | apparent first-order rate constant of hydrolysis (E. coli (K-12) lysate) | reduction of antibacterial activity by deletion of the cytoplasmic esterase [1] | Compounds remaining (%) 0 h [2] | Compounds remaining (%) 2 h [2] | Compounds remaining (%) 24 h [2] | Effect of addition of exogenous PLE on inhibitory efficacy [3] | MIC (μM) ([3]; wild type E. coli (K-12)) | effect of deletion of ydgR, fepA, or ompF on treated bacteria [4] | reduction of the viabilities of the acrA deletion mutant treated by the conjugates [5] | fraction hydrolyzed (E. coli (K-12) lysate; 24 hours after addition of E. coli lysate) | cytotoxicity / cell viability of HS-5 cells (HS-5 cells) | hydrolysis with addition of CES (carboxylesterase (CES)) | conversion in human serum ([2]; after 24 hours) | MIC ([3]; read-out: MIC value before addition of exogenous CES) | MIC ([3]; FIG. 3B, with exogenous carboxylesterase (CES), read-out: MIC value after addition of exogenous CES) | MIC ([3]; wild type E. coli (K-12), read-out: MIC) | MIC ([3]; wild type E. coli (K-12), read-out: MIC (μg/mL)) | MIC (μg/mL) ([3]; wild type E. coli (K-12))
1 | O=C(O)CNC(=O)C(CO)NC(=O)CCC(=O)OCC(NC(=O)C(Cl)Cl)C(O)c1ccc([N+](=O)[O-])cc1 (stereo not shown) [Compound 1d] | 1.267 h⁻¹ | ~10% | 100% | 16.7% | 0% | hardly changes | 40 µM (≈ 22.7 µg/mL) | hardly rescues the bacteria | 40% |  |  |  |  |  |  |  |  | 
2 | NCCCCC(NC(=O)C(CCCCN)NC(=O)CCC(=O)OCC(NC(=O)C(Cl)Cl)C(O)c1ccc([N+](=O)[O-])cc1)C(=O)O (stereo not shown) [Compound 2c] | 0.310 h⁻¹ | about 20% | 100% | 49.2% | 0% | hardly changes | 200 µM (≈ 136 µg/mL) | hardly rescues the bacteria | 50% |  |  |  |  |  |  |  |  | 
3 | O=C(CCC(=O)OCC(NC(=O)C(Cl)Cl)C(O)c1ccc([N+](=O)[O-])cc1)NCC(=O)NC(CO)C(=O)O (stereo not shown) [Compound 1c] | 3.763 h⁻¹ | about 20% | 100% | 0% | 0% | hardly changes | 20 µM (≈ 11.3 µg/mL) | hardly rescues the bacteria | 30% |  |  |  |  |  |  |  |  | 
4 | NCCCCC(NC(=O)C(CCCCN)NC(=O)CCC(=O)OCC(NC(=O)C(Cl)Cl)C(O)c1ccc([N+](=O)[O-])cc1)C(=O)O (stereo not shown) [Compound 2b] | 0.317 h⁻¹ | about 20% | 100% | 52.9% | 0% | hardly changes | 200 µM (≈ 136 µg/mL) | hardly rescues the bacteria | 20% |  |  |  |  |  |  |  |  | 
5 | O=C(O)CCC(=O)OC[C@@H](NC(=O)C(Cl)Cl)[C@H](O)c1ccc([N+](=O)[O-])cc1 [CLsu, chloramphenicol succinate, reference compound] |  |  | 100% | 96.2% | 87.0% |  | >200 µM |  |  | less than 20% | largely innocuous; also recorded: lower cytotoxicity than CL | hardly undergoes hydrolysis | less than 15% | 90 µM | 49 µM | > 200 µM | > 84.6 µg/mL | >84.6 µg/mL
